From US20260033988A1, “SYSTEM AND METHOD FOR ULTRASOUND-ENHANCED DELIVERY OF DRUGS” (Sonikure Holdings Limited, priority 2016, published 2026)

Assays:
[1] = test system: experimental autoimmune uveitis (EAU); assay: In vivo delivery of dexamethasone into mice eyes for treatment of experimental autoimmune uveitis (ultrasound versus intravitreal injection)
Description: The procedure relates to an in vivo study of delivering small molecules into mice eyes for treatment of experimental autoimmune uveitis (EAU). The small molecules used were dexamethasone, with of a molecular weight of about […]. For a given animal subject, the drug was delivered via intravitreal injection (10 μg in 1 μL balanced salt solution), to the left eye. For the right eye, the drug (10 μg in 1 μL balanced salt solution, repeat 3 times) was delivered by 40 kHz ultrasound.
A timeline is illustrated of the experimental procedure. EAU mice were provided as described. The final n=2, as one mouse was dead on day 10 during the first treatment. On day 0, EAU induction occurred. Baseline imaging by confocal scanning laser ophthalmology (cSLO) and optical coherence tomography (OCT) occurred on day 0. On day 10, the drug was applied via ultrasound on the right eye. The drug was applied via intravitreal injection to the left eye. On day 13, imaging was conducted via cSLO and OCT. On days 13, 17, and 20, the drug was delivered to the right eye via ultrasound. On day 21, the mice were sacrificed for histology. Imaging was conducted by cSLO and OCT.

[2] = Ultrasound delivery of riboflavin into ex vivo pig corneas; set-up: species or system porcine
Description: For example, a riboflavin molecule may be delivered into a cornea by ultrasound. An ex vivo study was conducted of delivering small molecules into porcine corneal tissue. The small molecules used was riboflavin. The small molecules may have a molecular weight of about 376 g/mol or less. By using ultrasound at 40 kHz, at least 15 μg/mL of riboflavin was delivered into the deep corneal stromal tissue.
An illustration is provided of riboflavin 1 mg/mL delivered into ex vivo pig corneas. The riboflavin concentration in μg/mL is shown for different circumstances, such as epithelium debrided (Epi-off) cornea with 30 minutes riboflavin contact, Epi-Off with 3 cycles of 90 seconds ultrasound+15 minutes breaks in between and Epi-Off with 3 cycles of 90 seconds ultrasound+5 minutes break in between. 0.1% Riboflavin solution, Peschke D was delivered in ex-vivo pig corneas. The 15 μg/mL safety threshold is exceeded by applying 3 cycles of 90 seconds ultrasound with 5 minute breaks in between.

[3] = Ultrasound delivery of Riboflavin-5-Phosphate into porcine corneas, fluorescent measurement of extract; settings: epi-off; 0.1% solution; ultrasound 40 kHz, mechanical index 0.2, for 5 minutes or less
Description: Riboflavin-5-Phosphate (R5P), 1.5 mL, 0.1% solution was applied to a porcine eyeball, epi-off. The ultrasound parameters were 40 kHz, mechanical index 0.2. The cornea was in full contact with R5P over indicated time period. The cornea was excised and weighed. Extracted supernatant with R5P was used for fluorescent measurement.

C[C@@H]1C[C@H]2[C@@H]3CCC4=CC(=O)C=C[C@]4(C)[C@@]3(F)[C@@H](O)C[C@]2(C)[C@@]1(O)C(=O)CO [dexamethasone]
retina injury (FFA photo and OCT sections) ([1]; left eye, intravitreal injection 10 μg in 1 μL, retinal change still existed at day 21): retina injury caused by intravitreal injection
retina injury (fundus photos, FFA) ([1]; right eye of Mouse 1 and Mouse 2, drug delivered by 40 kHz ultrasound, days 13 and 21): no injury of retina

Cc1cc2nc3c(=O)[nH]c(=O)nc-3n(C[C@H](O)[C@H](O)[C@H](O)CO)c2cc1C [riboflavin]
riboflavin concentration in cornea versus 15 μg/mL safety threshold ([2]; ex vivo pig cornea, Epi-Off, 0.1% riboflavin solution, 3 cycles of 90 seconds ultrasound with 5 minute breaks in between): > 15 µg/mL
riboflavin delivered into the deep corneal stromal tissue ([2]; ex vivo porcine cornea, ultrasound at 40 kHz): at least 15 μg/mL

Cc1cc2nc3c(=O)[nH]c(=O)nc-3n(C[C@H](O)[C@H](O)[C@H](O)COP(=O)(O)O)c2cc1C [Riboflavin-5-Phosphate]
concentration delivered into porcine corneas compared with typical Dresden protocol (30 minutes instillation) [3]: reached the therapeutic threshold
